In series [1] the target is recombinant CYP4F2 (rCYP4F2) (Homo sapiens (Human), UniProt P78329). Nature of the series: Inhibition of 20-HETE production by recombinant CYP4F2. It is filed as biochemical. In a few lines: (§1)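 Liver microsomes (human or mouse) or recombinant CYP4F2 or CYP4A11 in potassium phosphate buffer mixed with compound, then with 400 μM substrate solution (stock). After 10 min preincubation at 37 °C, reaction started with 6 mM NADPH solution (stock) and run 25 min at 37 °C. 20-HETE formation quantified by LC-MS/MS; IC50 from a four-parameter Hill fit, with percent inhibition also reported at 1000, 500 or 100 nM.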

Series [2] deals with CYP enzymes in mouse liver microsomes (MLM). The series can be described thus: Inhibition of 20-HETE production in mouse liver microsomes (MLM). The format is biochemical. In a few lines: as §1
Series [3] has as its system diet-induced obesity (DIO) mouse model. Nature of the series: Experiment 2: compound 2 and 4, weight loss and blood glucose lowering in DIO mouse model. It is filed as in vivo, Male C57BL/6J mice. The source says: Experiment 2 was to study the effects of compound 2 and 4 on weight loss and blood glucose lowering in a diet-induced obesity (DIO) mouse model. Male C57BL/6J mice were purchased from Zhuhai BST Biotechnology Co., Ltd. and housed in a barrier system animal facility. Animals were randomly divided into 4 groups: normal control group, DIO model control group, DIO model compound 2 treatment group, and DIO model compound 4 treatment group, with 4-5 animals per group. The model control group and treatment groups were first fed with high-fat diet (HFD) for 9 weeks (day 63), and then the treatment groups were orally administered with compound 2 or compound 4 at a dose of 50 mg/kg once daily for 4 consecutive weeks, while continuing to receive HFD. Animal weights were measured weekly, and on the last day of treatment, they were fasted overnight but allowed access to water before an oral glucose tolerance test (OGTT).

Series [4] has as its system CYP enzymes in human liver microsomes (HLM). Nature of the series: Inhibition of 20-HETE production in human liver microsomes (HLM). The format is biochemical. In a few lines:
as §1

[5] abbreviates: 50 mg/kg orally once daily for 4 weeks, DIO mice.

recombinant CYP4F2 (rCYP4F2), sequence (P78329 5-520): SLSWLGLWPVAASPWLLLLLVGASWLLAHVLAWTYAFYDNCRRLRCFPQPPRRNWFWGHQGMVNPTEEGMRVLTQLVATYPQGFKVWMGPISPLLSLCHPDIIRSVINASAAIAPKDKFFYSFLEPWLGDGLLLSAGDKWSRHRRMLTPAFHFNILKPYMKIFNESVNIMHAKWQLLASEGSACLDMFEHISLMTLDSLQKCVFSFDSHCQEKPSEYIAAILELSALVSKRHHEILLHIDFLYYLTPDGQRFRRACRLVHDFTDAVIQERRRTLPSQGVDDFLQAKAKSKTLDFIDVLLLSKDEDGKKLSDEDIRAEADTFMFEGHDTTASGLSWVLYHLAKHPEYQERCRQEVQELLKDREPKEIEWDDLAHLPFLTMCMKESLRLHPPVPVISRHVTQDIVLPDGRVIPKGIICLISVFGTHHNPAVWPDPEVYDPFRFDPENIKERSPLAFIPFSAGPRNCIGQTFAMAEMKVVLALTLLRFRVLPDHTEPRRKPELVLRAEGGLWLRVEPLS

Turning to `O=C1CCCN1CC1CCN(c2ccc(-c3cn[nH]c3)cc2F)CC1` [Compound 2, 1-((1-(2-fluoro-4-(1H-pyrazol-4-yl)phenyl)piperidin-4-yl)methyl)pyrrolidin-2-one], the IC50 in series [1] stood at 15.8 nM; in series [2], 1340 nM; in series [4], 28.7 nM. Besides, in series [3] (setting [5]), the fasting blood glucose result is listed as “inhibit the increase in fasting blood glucose”. Also, in series [3] (setting [5]), the “glucose metabolism (OGTT)” value is given as “enhance glucose metabolism”. Further, in series [3] (50 mg/kg orally once daily, first week of administration, after 9 weeks HFD), the “body weight decrease, of the pre-administration weight” value is on record as 12%-16%. Also, the “HLM (% inh @ 500 nM)” value in series [4] (500 nM) came out at 79.50%.

Source of the values: patent publication US20250034116A1, “1,4-DIHETEROCYCLIC SUBSTITUTED AROMATIC RING OR AROMATIC HETEROCYCLIC COMPOUND AND USE THEREOF” (BeBetter Med Inc., priority 2022, published 2025).
